Assays:
UGT1A7 = UGT1A7 (Homo sapiens, UniProt Q9HAW7); assay: Substrate glucuronidation by recombinant UGT1A7; type: in vitro ADME; conditions: UGT1A7 Bacculosomes 250 μg/ml; 7-HFC 50 μM
UGT1A10 [1] = target: T1, UGT1A10 (Homo sapiens, UniProt Q9HAW8); assay: Substrate glucuronidation by recombinant UGT1A10; conditions: 7-HFC 50 μM
T1 sequence (Q9HAW8 26-530): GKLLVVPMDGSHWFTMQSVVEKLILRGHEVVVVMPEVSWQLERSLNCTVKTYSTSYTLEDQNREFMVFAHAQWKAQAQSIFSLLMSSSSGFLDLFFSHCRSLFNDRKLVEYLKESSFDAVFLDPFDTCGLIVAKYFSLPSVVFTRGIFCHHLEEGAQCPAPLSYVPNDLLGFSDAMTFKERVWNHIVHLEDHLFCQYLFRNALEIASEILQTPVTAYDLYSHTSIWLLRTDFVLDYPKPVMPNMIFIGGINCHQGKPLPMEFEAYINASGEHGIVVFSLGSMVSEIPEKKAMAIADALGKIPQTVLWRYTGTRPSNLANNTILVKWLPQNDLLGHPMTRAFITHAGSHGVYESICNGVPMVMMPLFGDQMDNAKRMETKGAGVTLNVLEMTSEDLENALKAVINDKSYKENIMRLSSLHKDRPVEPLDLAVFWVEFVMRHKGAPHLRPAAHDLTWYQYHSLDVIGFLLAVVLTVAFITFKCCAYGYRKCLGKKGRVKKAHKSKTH

[2] = test system: UGT enzymes of pooled human jejunum microsomes; assay: Inhibition of zidovudine glucuronidation in pooled human jejunum microsomes; type: biochemical; conditions: inhibitor 50 μM
Method: Increasing the microsomal protein concentration to 1 mg/ml and extending the incubation time to 60 min provided meaningful metabolite levels for inhibition studies.

[3] = healthy volunteers, concomitant diflunisal; cited from earlier work
UGT1A8 = target: T2, UGT1A8 (Homo sapiens, UniProt Q9HAW9)
T2 sequence (Q9HAW9 26-530): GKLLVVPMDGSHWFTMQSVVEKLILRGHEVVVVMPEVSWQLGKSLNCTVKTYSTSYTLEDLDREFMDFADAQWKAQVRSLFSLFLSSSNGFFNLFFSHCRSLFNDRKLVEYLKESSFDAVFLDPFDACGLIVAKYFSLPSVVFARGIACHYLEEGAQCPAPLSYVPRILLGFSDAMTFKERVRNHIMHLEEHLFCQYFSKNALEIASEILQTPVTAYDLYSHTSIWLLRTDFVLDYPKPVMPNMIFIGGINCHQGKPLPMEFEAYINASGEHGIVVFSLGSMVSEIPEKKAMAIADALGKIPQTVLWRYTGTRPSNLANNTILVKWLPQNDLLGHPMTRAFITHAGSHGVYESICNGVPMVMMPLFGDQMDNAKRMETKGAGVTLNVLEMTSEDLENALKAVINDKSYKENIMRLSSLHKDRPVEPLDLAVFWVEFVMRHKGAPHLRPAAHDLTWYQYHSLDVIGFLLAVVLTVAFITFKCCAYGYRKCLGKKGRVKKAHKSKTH

UGT1A9 = target: T3, UGT1A9 (Homo sapiens, UniProt O60656); conditions: 30 min, 100 μM, pH 7.5
T3 sequence (O60656 26-530): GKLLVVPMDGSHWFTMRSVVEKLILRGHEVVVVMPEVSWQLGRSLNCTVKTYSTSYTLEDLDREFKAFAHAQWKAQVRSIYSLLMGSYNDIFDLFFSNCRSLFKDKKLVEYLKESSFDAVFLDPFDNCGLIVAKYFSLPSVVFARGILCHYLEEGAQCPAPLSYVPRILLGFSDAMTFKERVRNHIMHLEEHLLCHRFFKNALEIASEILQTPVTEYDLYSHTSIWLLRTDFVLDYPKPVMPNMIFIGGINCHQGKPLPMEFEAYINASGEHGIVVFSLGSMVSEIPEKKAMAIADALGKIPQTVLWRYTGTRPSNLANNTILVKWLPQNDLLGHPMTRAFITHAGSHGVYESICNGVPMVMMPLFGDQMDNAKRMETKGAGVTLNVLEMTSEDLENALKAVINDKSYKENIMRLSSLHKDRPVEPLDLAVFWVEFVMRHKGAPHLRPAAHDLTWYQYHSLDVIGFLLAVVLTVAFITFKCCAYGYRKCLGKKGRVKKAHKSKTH

UGT1A10 [4] = target: T1, UGT1A10
[5] = test system: UGT enzymes of human liver microsomes; assay: Inhibition of zidovudine glucuronidation in human liver microsomes; type: biochemical
Method: Compounds were eluted using a binary solvent gradient system where solvent A was dilute phosphoric acid (pH 3) and solvent B was acetonitrile.
Standardized incubations utilized 500 μM zidovudine substrate, 1 mg/ml microsomal protein, 5 mM UDPGA and a 30 min incubation time. […] Int.

Chain of UGT1A7 (Q9HAW7 26-530): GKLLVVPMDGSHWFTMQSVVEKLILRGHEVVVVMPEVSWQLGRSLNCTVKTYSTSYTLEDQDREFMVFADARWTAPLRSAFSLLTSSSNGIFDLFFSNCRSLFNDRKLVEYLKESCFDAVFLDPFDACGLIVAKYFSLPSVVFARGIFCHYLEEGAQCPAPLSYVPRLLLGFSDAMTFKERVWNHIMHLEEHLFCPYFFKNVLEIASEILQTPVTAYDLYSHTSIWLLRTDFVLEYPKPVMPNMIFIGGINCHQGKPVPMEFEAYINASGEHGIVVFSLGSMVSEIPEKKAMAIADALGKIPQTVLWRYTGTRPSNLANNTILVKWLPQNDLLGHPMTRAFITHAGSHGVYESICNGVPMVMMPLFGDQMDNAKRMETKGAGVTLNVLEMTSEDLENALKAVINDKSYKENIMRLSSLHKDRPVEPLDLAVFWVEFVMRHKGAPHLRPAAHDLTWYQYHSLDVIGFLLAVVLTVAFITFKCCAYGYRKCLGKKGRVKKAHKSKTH

O=c1cc(C(F)(F)F)c2ccc(O)cc2o1 [7-HFC, 7-hydroxy-4-(trifluoromethyl)coumarin]
7-HFC glucuronidation rate (UGT1A7): 564 ± 9 pmol/min/mg protein | 7-HFC glucuronidation rate (UGT1A10 [1]; UGT1A10 Bacculosomes 250 μg/ml): 553 ± 40 pmol/min/mg protein | 7-HFC glucuronidation rate (UGT1A10 [1]; UGT1A10 Supersomes 250 μg/ml): 460 ± 2 pmol/min/mg protein

CC/C(=C(/CC)c1ccc(O)cc1)c1ccc(O)cc1 [Diethylstilbestrol, reference compound]
residual metabolism (percentage of control), zidovudine [2]: 42 (3) %

O=C(O)c1cc(-c2ccc(F)cc2F)ccc1O [Diflunisal, reference compound]
decrease in indomethacin clearance [3]: 70%

CC(CCc1ccccc1)NCC(O)c1ccc(O)c(C(N)=O)c1 (centres unmarked) [Labetalol, labetalol]
labetalol metabolism, in words (UGT1A8): No detectable metabolism was observed | LG1/LG2 (UGT1A9): 0.8 | labetalol metabolite LG1, peak area normalized to internal standard (UGT1A9): 38 (1) | labetalol metabolite LG2, peak area normalized to internal standard (UGT1A9): 49 (1) | labetalol metabolism, in words (UGT1A10 [4]): No detectable metabolism was observed

O=c1c(O)c(-c2ccc(O)c(O)c2)oc2cc(O)cc(O)c12 [Quercetin]
inhibition of zidovudine metabolism, in words [5]: ineffective
